Measured values: patent publication US20050239873A1 (priority 1999, published 2005)

Assays:
[1] = tested on: TABX2S cells (over-expressing Bcl-xL); assay: cells
Description: Briefly, a DNA fragment encoding the full-length mouse BCl-xL cDNA was isolated from the plasmid PBS.BCL-xL (Tzung et al., Am. J. Path. 150:1985-1995, 1997, incorporated herein by reference in its entirety) by digestion with the restriction endonuclease EcoRI. This EcoRI fragment was cloned into the EcoRI site of the mammalian expression vector pSFFV (Fuhlbrigge et al., Proc. Nat. Acad. Sci. USA 85:5649-5653, 1988) in both sense and antisense orientations, to form expression plasmids pSFFV.Bcl-xL(sense) or pSFFV.Bcl-xL(antisense), respectively. The tumorigenic murine hepatocyte cell line TAMH was transfected by lipofection (Lipofectamine, Life Technologies, Rockville, Md., according to the manufacturer's recommendations) with the plasmids pSFFV.neo (the control), pSFFV.Bcl-xL(sense) or pSFFV.Bcl-xL(antisense). […] Transfectants were selected for the acquisition of neomycin resistance by growing cells in the presence of 750 μg/ml of G418. Bulk transfectants were cloned by limiting dilution and individual clones were screened by immunoblot analysis to determine the level of BCl-xL protein expression as described below.
Selected transfectants were then tested for whole cell sensitivity to several apoptotic agents. Transfected cells were cultured to reach approximately 80% confluency prior to plating an equal number of cells from selected clones on 12-well tissue culture plates. The transplanted cells were treated with the following apoptotic agents: 5 μM doxorubicin for 48 hours; 5 μM cisplatin for 48 hours; or with 200 U/ml tumor necrosis factor (TNF) plus 1 μg/ml actinomycin D for 18 hours. Cell viability was determined by trypan blue dye exclusion. The percentage of viable cells was calculated by the number of viable cells (treated with a particular apoptogenic agent) divided by the number in the control group (untreated).
TABX2S cells and TABX1A cells were also examined for the effects of various mitochondrial inhibitors. […] Azide was diluted from an aqueous stock solution. […] Controls received an equivalent concentration of diluent. At various time points after drug treatment, cells were trypsinized, and cell viability was determined by trypan blue dye exclusion. The number of viable cells were counted and normalized to control group (i.e., % control=number of viable cells (treated group)/number of viable cells (control group)×100).

[2] = Stability in plasma; type: in vitro ADME, mouse; settings: for stability: 37° C., 60 min
Method: (§1) For analysis of samples, two volumes of cold methanol-acetonitrile (50:50, v/v) were added to portions of plasma, culture medium, or cell extract. The preparations were mixed and then centrifuged to obtain clear supernatants, which were dried at room temperature by compressed air. The residues were dissolved in the mobile phase, and a portion was injected onto the HPLC column.
(§2) The HPLC equipment consisted of a Hewlett Packard 1050 ChemStation with a fluorescence detector (Agilent 100 series). […] The mobile phase was methanol:ammonium acetate buffer (87:13 v/v; 0.2 M; pH 5.8, adjusted with HCl). The flow rate was 1 ml/min. The column elute was monitored fluorometrically at an excitation wavelength of 232 nm and an emission wavelength of 418 nm. The amounts of test compounds present in samples were determined from the peak areas.
(§3) Samples of mouse, rat, dog, and human plasma were incubated at 37° C. with and without addition of NaF (2.5 mg/ml) and EDTA (1 mg/ml). To these preparations, 2-OMe antimycin A1, 2-OMe antimcyin A2, 2-OMe antimycin A3, or 2-OMe antimycin A5, dissolved in methanol, was added to final concentrations of 500 ng/ml. Portions of plasma, taken at selected times after addition of the 2-OMe antimycin analog, were extracted and analyzed.
(§4) Similarly, the stability of 2-OMe antimycin A1, 2-OMe antimycin A2, […] in the plasma from mice and humans was evaluated at −80° C. From these preparations, portions were analyzed immediately; other portions were stored at -80° C. and analyzed after 1, 2, and 4 weeks.

[3] = Stability in plasma; type: in vitro ADME, rat; settings: 37° C., 60 min, presence of NaF/EDTA
Method: as §1, §2, §3

[4] = Stability in plasma; type: in vitro ADME, dog; settings: 37° C., 60 min; for stability: presence of NaF/EDTA
Method: as §1, §2, §3

[5] = Stability in plasma; type: in vitro ADME, human; settings: for stability: 60 min
Method: as §1, §2, §3, §4

[6] = tested on: plasma proteins; assay: Binding to plasma proteins (ultrafiltration); type: in vitro ADME, mouse; settings: presence of NaF+EDTA, 1000 ng/ml
Method: (§5) Solutions of 2-OMe antimycin A3 were diluted with plasma (dog or human) containing NaF+EDTA to final concentrations of 1.0 or 0.2 μg/ml. Controls were diluted with water to the same final concentrations. These preparations were incubated at 37° C. for 20 min, at which time portions were taken and placed in the sample reservoirs of Amicon Centrifree® ultrafiltration systems (Millipore Co., Bedford, Mass.). At 37° C., the filter systems were centrifuged until the reservoirs were dry. From each filtrate, portions were taken for analysis by HPLC. The amounts present were designated as “free drug” (F). The concentrations of the unfiltered solutions were also determined by triplicate analyses. This amount represented the “total drug” concentration (T). The percentage of 2-OMe antimycin A3 bound to plasma proteins was calculated by the following formula: % bound=((T−F)/T)×100

[7] = tested on: plasma proteins; assay: Binding to plasma proteins (ultrafiltration); type: in vitro ADME, rat; settings: presence of NaF+EDTA, 1000 ng/ml
[8] = tested on: plasma proteins; assay: Binding to plasma proteins (ultrafiltration); type: in vitro ADME, dog; settings: presence of NaF+EDTA, 1000 ng/ml
Method: as §5
Similar experiments were performed for 2-OMe antimycin A3 in dog or rat plasma in the absence of NaF/EDTA.

[9] = tested on: plasma proteins; assay: Binding to plasma proteins (ultrafiltration); type: in vitro ADME, human; settings: presence of NaF+EDTA, 1000 ng/ml
Method: as §5

[10] = tested on: RPMI-8226 cells; assay: GI50 assay (MTT); type: cell-based, human
Method: RPMI 8226 cells were grown in 96 well plates for 24 h prior to addition of 2-methoxy Antimycins. Antimycin stocks in DMSO were serially diluted in RPMI media. Cells were incubated for 48 h with compounds at final compound concentrations ranging from 10^−4 to 10^−8 M. MTT assays were performed in quadruplicate and percent growth inhibitions were calculated as (A570 (control cells)—A570 (treated cells))/A570 (control cells). The GI50 was extrapolated from semi-log plots of the dose response for each compound. […] After 72 h drug exposures, 1 μCi/ml [^3H]-thymidine was added to wells. Cells were incubated for an additional 24 h, and then transferred to GF/C filter plates (Packard) using a plate washer. Filters were dried, added to scintillant, and counted in a TopCount scintillation counter (Packard). Drug response was expressed as the percentage of vehicle-treated controls, and each value shown as the average of three determinations.

[11] = molecular target: T1, recombinant human Bcl-2ΔC22 (Homo sapiens, UniProt P10415); assay: Antimycin A3 fluorescence binding and competition assay; settings: 2 μM each, Bcl-2 3 μM, 7.5 minutes, 22.5° C.
T1 construct: poly-His (N); made in house
T1 sequence (P10415 1-217 limits assumed, stated change not applied): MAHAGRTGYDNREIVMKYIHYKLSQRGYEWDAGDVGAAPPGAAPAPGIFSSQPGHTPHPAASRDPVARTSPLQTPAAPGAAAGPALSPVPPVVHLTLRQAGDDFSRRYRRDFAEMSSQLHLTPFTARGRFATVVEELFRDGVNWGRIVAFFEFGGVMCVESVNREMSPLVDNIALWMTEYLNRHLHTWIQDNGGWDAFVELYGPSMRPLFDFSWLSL
Method: In this assay, 0 to 5 μM antimycin A3 (Sigma Chemical Co., St. Louis, Mo.) was added to a physiological buffer (50 mM Tris-HCl pH 8.0, 0.2 M NaCl, 2 mM EDTA, 0.5% v/v glycerol) containing recombinant Bcl-2 or BCl-xL protein under conditions that permitted antimycin A3 to bind to the BH3-binding domain of Bcl-2 or BCl-xL (22.5° C. on a Hitachi F-2500 fluorescence spectrofluorimeter equipped with a thermostatted cell holder). […] The excitation wavelength was 335 nm, and the maximum emission wavelength for antimycin A3 was 428 nm with a slit width of 10 nm. The samples were mixed in a quartz cuvette and checked for inner filter effect over the concentration range of antimycin A3 used for this study. Blanks containing antimycin A3 at the same concentration as the experimental samples were used as controls in all measurements and necessary background corrections were made.
Recombinant human Bcl-2ΔC22 (a recombinant human Bcl-2 with a delection of 22 amino acid residue membrane anchor sequence from the carboxyl end) and mouse Bcl-xLΔC20 (a recombinant murine BCl-xL with a delection of the 20 amino acid residue membrane anchor sequence from the carboxyl end) fused with poly-His at the N-terminus were chromatographically purified to homogeneity. The concentrations of antimycin A3 and stock solutions of recombinant proteins were quantitated using an extinction coefficient of 7.24/mM/cm at 320 nm and by Bradford assay, respectively. The stoichiometric ratio of antimycin A3 and Bcl-2 producing the maximal change in antimycin A3 fluorescence was determined with incremental addition of antimycin A3 to a 1.98 μM solution of recombinant Bcl-2 in a volume of 2.1 milliliters. […] For peptide displacement experiments, a solution of 2 μM antimycin A3 and 3 μM Bcl-2 was allowed to reach binding equilibrium at 4° C. prior to fluorescence measurements. Native peptide corresponding to the BH3 domain of Bak (72-[…]87 (SEQ ID NO:1)) or a mutant peptide with a single amino acid change (Leu78Ala-BH3) was added to the solution and the fluorescence measurements were repeated. […]

[12] = molecular target: T2, Bcl-xL(ΔC) WT (Homo sapiens, UniProt Q07817); assay: Pore-forming activity, calcein release from liposomes; type: biochemical
T2 construct: inferred from Ni-NTA purification and the pET22b(+) NdeI/XhoI cloning); made in house; host or cells: Escherichia coli BL21(DE3) carrying pUB520
T2 sequence (Q07817 1-211 limits assumed, stated change not applied): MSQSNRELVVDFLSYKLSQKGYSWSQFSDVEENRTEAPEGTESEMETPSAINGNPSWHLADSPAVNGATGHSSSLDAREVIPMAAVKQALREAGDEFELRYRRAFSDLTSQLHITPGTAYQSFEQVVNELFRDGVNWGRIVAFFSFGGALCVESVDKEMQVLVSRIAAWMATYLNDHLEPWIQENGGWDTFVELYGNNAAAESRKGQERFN
Method: Large unilamellar vesicles composed of 60% dioleoylphophatidylcholine and 40% dioleoylphosphatidylglycerol were prepared by the extrusion method of Mayer et al., supra. Lipid stocks, in chloroform, were mixed and dried under a stream of nitrogen gas. The lipid was resuspended by vortexing for 30 min in a solution of 40 mM calcein (Molecular Probes), 25 mM KCl, and 10 mM KOAc, pH 5.0. After 10 freeze-thaw cycles, the lipid suspension was extruded through two 0.1 μm pore diameter Nucleopore filters. Non-entrapped dye was removed by passage over a Sephadex G10 column (Amersham Biosciences). Lipid concentration was measured using the ammonium ferrothiocyanate method (Stewart, Anal. Biochem. 104:10-14, 1980).
For pore assays, recombinant truncated Bcl-2 family protein or mutant protein (Bcl-xL(ΔC)) (500 nM) was added to large unilamellar vesicles (60 μM lipid concentration) in 100 mM KCl, 10 mM KOAc, pH 5.0, and fluorescence measured (490 nm excitation, 520 nm emission) with a Fluoromax-3 spectrophotometer. Peptides of the BH3 domain were incubated with the BCl-xL(ΔC) 5 min prior to mixing with liposomes. AA1 was added to liposomes 1 min before adding the Bcl-xL(ΔC) protein. Samples for kinetic assays were analyzed in a thermostatted cuvette at 37° C. with constant stirring. Dose responses were measured in black quartz microplates (Hellma) at room temperature. Calcein release was expressed as percentage of maximum release with detergent lysis (0.1% Triton X-100).

Row | Compound | difference in sensitivity of the two cell lines ([1]; TABX2S vs TABX1A) | time until cell death apparent ([1]; after treatment, TABX2S and TABX1A cells) | stability ([2]; presence of NaF/EDTA) | amounts remaining after 4 weeks ([2]; -80° C., presence of NaF/EDTA) | amounts remaining after 4 weeks ([2]; −80° C., absence of NaF/EDTA) | stability [3] | stability [4] | stability ([5]; 37° C., presence of NaF/EDTA) | amounts remaining after 4 weeks ([5]; -80° C., presence of NaF/EDTA) | amounts remaining after 4 weeks ([5]; −80° C., absence of NaF/EDTA) | Protein binding, Mouse [6] | Protein binding, Rat [7] | Protein binding, Dog [8] | Protein binding, Human [9] | activity relative to 2-OMeA1, 2-OMeA2 and 2-OMeA3 (GI50) [10] | competition with antimycin A3 for Bcl-2 [11] | effect on Bcl-xL pore-forming activity [12] | added amount remaining ([4]; absence of NaF/EDTA, 500 ng/ml) | decrease in concentration ([5]; 37° C., presence of NaF/EDTA) | GI50 ([10]; 48 h, MTT)
1 | CC(C)[C@@H]1NC(=O)[C@H](C)OC(=O)[C@@H](C(C)C)NC(=O)[C@@H](C(C)C)OC(=O)[C@H](C(C)C)NC(=O)[C@H](C)OC(=O)[C@@H](C(C)C)NC(=O)[C@@H](C(C)C)OC(=O)[C@H](C(C)C)NC(=O)[C@H](C)OC(=O)[C@@H](C(C)C)NC(=O)[C@@H](C(C)C)OC1=O [valinomycin] | no significant differences | six to eight | – | – | – | – | – | – | – | – | – | – | – | – | – | – | – | – | – | –
2 | CC[C@H]1C(=O)O[C@H](C)[C@H](NC(=O)c2cccc(NC=O)c2OC)C(=O)O[C@@H](C)[C@@H]1OC(=O)CC(C)C [2-OMeA5, 2-OMe antimycin A5] | – | – | notable decreases in concentration | 63% | 27% | notable decreases in concentration | stable | stable | 92% | 79% | 99.7% | >99.9% | 99.1% | 99.6% | approximately ⅓ | – | – | – | – | –
3 | CCCC[C@H]1C(=O)O[C@H](C)[C@H](NC(=O)c2cccc(NC=O)c2OCC(=O)c2ccccc2)C(=O)O[C@@H](C)[C@@H]1OC(=O)CC(C)C [phenacyl ether antimycin A3] | – | – | – | – | – | – | – | – | – | – | – | – | – | – | – | did not displace antimycin A3 | no effect | – | – | –
4 | CCCCCC[C@H]1C(=O)O[C@H](C)[C@H](NC(=O)c2cccc(NC=O)c2OC)C(=O)O[C@@H](C)[C@@H]1OC(=O)CCC [2-OMeA2, 2-methoxy antimycin A2] | – | – | generally stable | 77% | 63% | generally stable | generally stable | generally stable | 83% | 70% | 99.7% | 99.9% | 99.9% | >99.9% | – | – | – | 53% | 18% | 12.2 µM
